The subject of assay [1] is Klebsiella aerogenes. Kind of assay: Inhibition of multidrug resistance efflux pump in Enterobacter aerogenes isolate 6 assessed as increase in intracellular [14C]chloramphenicol accumulation relative to untreated control. It is filed as cell-based.
Assay [2] relates to Klebsiella pneumoniae. Kind of assay: Inhibition of multidrug resistance efflux pump in Klebsiella pneumoniae isolate 14 assessed as increase in intracellular [14C]chloramphenicol accumulation relative to untreated control.
The subject of assay [3] is Klebsiella aerogenes. Kind of assay: Inhibition of multidrug resistance efflux pump in Enterobacter aerogenes isolate 13 assessed as increase in intracellular [14C]chloramphenicol accumulation relative to untreated control. It is filed as cell-based.
Assay [4] deals with Klebsiella pneumoniae. In words: Inhibition of multidrug resistance efflux pump in Klebsiella pneumoniae isolate 13 assessed as increase in intracellular [14C]chloramphenicol accumulation relative to untreated control.
Assay [5] concerns Klebsiella aerogenes. Kind of assay: Inhibition of multidrug resistance efflux pump in Enterobacter aerogenes isolate 17 assessed as increase in intracellular [14C]chloramphenicol accumulation relative to untreated control. Format: cell-based.
Assay [6] deals with Klebsiella aerogenes. In words: Antimicrobial activity against multidrug resistant Enterobacter aerogenes isolate 5 by broth dilution method. It is filed as functional. (In general: In broth dilution the organism is exposed to a series of concentrations in liquid medium.)
Assay [7] has as its system Klebsiella aerogenes. Kind of assay: Antimicrobial activity against multidrug resistant Enterobacter aerogenes isolate 22 by broth dilution method. It is filed as functional.
In assay [8] the test system is Klebsiella aerogenes. In words: Antimicrobial activity against multidrug resistant Enterobacter aerogenes isolate 19 by broth dilution method. Format: functional.
The subject of assay [9] is Klebsiella aerogenes. Kind of assay: Antimicrobial activity against multidrug resistant Enterobacter aerogenes isolate 8 by broth dilution method. It is filed as functional.
The test system of assay [10] is Klebsiella aerogenes. In words: Antimicrobial activity against multidrug resistant Enterobacter aerogenes isolate 10 by broth dilution method. It is filed as functional.
In assay [11] the test system is Klebsiella aerogenes. Kind of assay: Antimicrobial activity against multidrug resistant Enterobacter aerogenes isolate 2 by broth dilution method. Format: functional.
The subject of assay [12] is Escherichia coli. Kind of assay: microbe, parasite or virus in culture. As to conditions: DH5[alpha].
Description: Antimicrobial activity against multidrug resistant Escherichia coli DH5[alpha] harboring pACM204 plasmid by broth dilution method
The test system of assay [13] is Klebsiella aerogenes. Kind of assay: Antimicrobial activity against multidrug resistant Enterobacter aerogenes isolate 1 by broth dilution method. Format: functional.
Assay [14] deals with Klebsiella pneumoniae. Kind of assay: Antimicrobial activity against multidrug resistant Klebsiella pneumoniae isolate 5 by broth dilution method. Format: functional.
The test system of assay [15] is Klebsiella aerogenes. Kind of assay: Antimicrobial activity against multidrug resistant Enterobacter aerogenes isolate 25 by broth dilution method. It is filed as functional.
The test system of assay [16] is Klebsiella pneumoniae. Kind of assay: Antimicrobial activity against multidrug resistant Klebsiella pneumoniae isolate 15 by broth dilution method. Format: functional.
Assay [17] deals with Klebsiella pneumoniae. In words: Antimicrobial activity against multidrug resistant Klebsiella pneumoniae isolate 13 by broth dilution method. It is filed as functional.
For assay [18], the system named is Klebsiella aerogenes. In words: Antimicrobial activity against multidrug resistant Enterobacter aerogenes isolate 14 by broth dilution method. It is filed as functional.
Assay [19] deals with Klebsiella pneumoniae. In words: Antimicrobial activity against multidrug resistant Klebsiella pneumoniae isolate 11 by broth dilution method. It is filed as functional.
Assay [20] concerns Klebsiella pneumoniae. Kind of assay: Antimicrobial activity against multidrug resistant Klebsiella pneumoniae ATCC 11296 by broth dilution method. Format: functional.
Assay [21] relates to Klebsiella pneumoniae. In words: Antimicrobial activity against multidrug resistant Klebsiella pneumoniae isolate 3 by broth dilution method. Format: functional.
The subject of assay [22] is Klebsiella aerogenes. In words: Antimicrobial activity against multidrug resistant Enterobacter aerogenes isolate 17 by broth dilution method. It is filed as functional.
The test system of assay [23] is Klebsiella aerogenes. Kind of assay: Antimicrobial activity against multidrug resistant Enterobacter aerogenes isolate 20 by broth dilution method. Format: functional.
The subject of assay [24] is Escherichia coli. Kind of assay: microbe, parasite or virus in culture. The settings on record: ATCC 35218.
Description: Antimicrobial activity against multidrug resistant Escherichia coli ATCC 35218 harboring pDrive plasmid by broth dilution method
Assay [25] deals with Klebsiella aerogenes. Kind of assay: Antimicrobial activity against multidrug resistant Enterobacter aerogenes isolate 13 by broth dilution method. Format: functional.
For assay [26], the system named is Klebsiella pneumoniae. In words: Antimicrobial activity against multidrug resistant Klebsiella pneumoniae isolate 10 by broth dilution method. It is filed as functional.
The subject of assay [27] is Klebsiella pneumoniae. In words: Antimicrobial activity against multidrug resistant Klebsiella pneumoniae isolate 9 by broth dilution method. Format: functional.
Assay [28] relates to Klebsiella aerogenes. Kind of assay: Antimicrobial activity against multidrug resistant Enterobacter aerogenes ATCC 15038 by broth dilution method. It is filed as functional.
Assay [29] relates to Escherichia coli. Kind of assay: microbe, parasite or virus in culture. The settings on record: ATCC 35218. This is another data set of the same source.
Description: Antimicrobial activity against multidrug resistant Escherichia coli ATCC 35218 harboring pDrive plasmid expressing ampC gene by broth dilution method
For assay [30], the system named is Escherichia coli. In words: Antimicrobial activity against multidrug resistant Escherichia coli ATCC 35218 by broth dilution method. Format: functional.
The test system of assay [31] is Klebsiella aerogenes. Kind of assay: Antimicrobial activity against multidrug resistant Enterobacter aerogenes isolate 21 by broth dilution method. It is filed as functional.
Assay [32] concerns Klebsiella aerogenes. In words: Antimicrobial activity against multidrug resistant Enterobacter aerogenes isolate 3 by broth dilution method. Format: functional.
The test system of assay [33] is Klebsiella aerogenes. Kind of assay: Antimicrobial activity against multidrug resistant Enterobacter aerogenes ATCC 15038 harboring pACM204 plasmid by broth dilution method. It is filed as functional.
The test system of assay [34] is Klebsiella aerogenes. Kind of assay: Antimicrobial activity against multidrug resistant Enterobacter aerogenes isolate 9 by broth dilution method. It is filed as functional.
Assay [35] concerns Klebsiella aerogenes. In words: Antimicrobial activity against multidrug resistant Enterobacter aerogenes isolate 26 by broth dilution method. Format: functional.
The subject of assay [36] is Klebsiella aerogenes. Kind of assay: Antimicrobial activity against multidrug resistant Enterobacter aerogenes isolate 23 by broth dilution method. It is filed as functional.
For assay [37], the system named is Klebsiella pneumoniae. Kind of assay: Antimicrobial activity against multidrug resistant Klebsiella pneumoniae isolate 7 by broth dilution method. It is filed as functional.
Assay [38] concerns Klebsiella pneumoniae. In words: Antimicrobial activity against multidrug resistant Klebsiella pneumoniae isolate 16 by broth dilution method. It is filed as functional.
In assay [39] the test system is Klebsiella aerogenes. Kind of assay: Antimicrobial activity against multidrug resistant Enterobacter aerogenes isolate 12 by broth dilution method. It is filed as functional.
Assay [40] concerns Klebsiella pneumoniae. Kind of assay: Antimicrobial activity against multidrug resistant Klebsiella pneumoniae isolate 6 by broth dilution method. It is filed as functional.
In assay [41] the test system is Klebsiella aerogenes. In words: Antimicrobial activity against multidrug resistant Enterobacter aerogenes ATCC 15038 harboring pDrive plasmid expressing ampC gene by broth dilution method. It is filed as functional.
Assay [42] concerns Klebsiella pneumoniae. In words: Antimicrobial activity against multidrug resistant Klebsiella pneumoniae isolate 8 by broth dilution method. Format: functional.
In assay [43] the test system is Klebsiella pneumoniae. Kind of assay: Antimicrobial activity against multidrug resistant Klebsiella pneumoniae isolate 12 by broth dilution method. Format: functional.
Assay [44] relates to Klebsiella aerogenes. Kind of assay: Antimicrobial activity against multidrug resistant Enterobacter aerogenes isolate 16 by broth dilution method. Format: functional.
In assay [45] the test system is Klebsiella aerogenes. Kind of assay: Antimicrobial activity against multidrug resistant Enterobacter aerogenes isolate 11 by broth dilution method. Format: functional.
The test system of assay [46] is Escherichia coli. In words: microbe, parasite or virus in culture. As to conditions: DH5[alpha]. This is another data set of the same source.
Description: Antimicrobial activity against multidrug resistant Escherichia coli DH5[alpha] harboring pDrive plasmid expressing ampC gene by broth dilution method
Assay [47] has as its system Escherichia coli. In words: microbe, parasite or virus in culture. The settings on record: DH5[alpha]. This is another data set of the same source.
Description: Antimicrobial activity against multidrug resistant Escherichia coli DH5[alpha] harboring pDrive plasmid by broth dilution method
Assay [48] has as its system Klebsiella aerogenes. Kind of assay: Antimicrobial activity against multidrug resistant Enterobacter aerogenes isolate 27 by broth dilution method. Format: functional.
Assay [49] deals with Klebsiella aerogenes. In words: Antimicrobial activity against multidrug resistant Enterobacter aerogenes isolate 24 by broth dilution method. Format: functional.
The subject of assay [50] is Klebsiella aerogenes. In words: Antimicrobial activity against multidrug resistant Enterobacter aerogenes isolate 18 by broth dilution method. Format: functional.
Assay [51] deals with Klebsiella pneumoniae. In words: Antimicrobial activity against multidrug resistant Klebsiella pneumoniae isolate 14 by broth dilution method. Format: functional.
The subject of assay [52] is Klebsiella pneumoniae. In words: Antimicrobial activity against multidrug resistant Klebsiella pneumoniae isolate 2 by broth dilution method. Format: functional.
Assay [53] relates to Klebsiella aerogenes. In words: Antimicrobial activity against multidrug resistant Enterobacter aerogenes ATCC 15038 harboring pDrive plasmid by broth dilution method. It is filed as functional.
Assay [54] deals with Klebsiella pneumoniae. In words: Antimicrobial activity against multidrug resistant Klebsiella pneumoniae isolate 1 by broth dilution method. Format: functional.
Assay [55] has as its system Klebsiella aerogenes. In words: Antimicrobial activity against multidrug resistant Enterobacter aerogenes isolate 7 by broth dilution method. It is filed as functional.
The subject of assay [56] is Klebsiella aerogenes. In words: Antimicrobial activity against multidrug resistant Enterobacter aerogenes isolate 15 by broth dilution method. Format: functional.
Assay [57] concerns Klebsiella aerogenes. Kind of assay: Antimicrobial activity against multidrug resistant Enterobacter aerogenes isolate 4 by broth dilution method. Format: functional.
Assay [58] has as its system Escherichia coli. Kind of assay: microbe, parasite or virus in culture. As to conditions: DH5[alpha]. This is another data set of the same source.
Description: Antimicrobial activity against multidrug resistant Escherichia coli DH5[alpha] by broth dilution method
Assay [59] relates to Klebsiella pneumoniae. Kind of assay: Antimicrobial activity against multidrug resistant Klebsiella pneumoniae isolate 4 by broth dilution method. It is filed as functional.
The subject of assay [60] is Klebsiella aerogenes. Kind of assay: Antimicrobial activity against multidrug resistant Enterobacter aerogenes isolate 6 by broth dilution method. It is filed as functional.

≈ marks a conversion by molar mass, not a printed value. Calls of active or inactive are those of the source. The rule behind the calls is not given here. Peptide text beside a SMILES is read from it. * marks the point of attachment. βNA = c1ccc2cc(N*)ccc2c1

With `N#CC(C#N)=NNc1cccc(Cl)c1` [CARBONYL CYANIDE M-CHLOROPHENYLHYDRAZONE], the fold change (FC) in [1], in assay [2], in assay [3], in assay [4] and in assay [5] was 2 each time.
Turning to `C[C@@H](O)[C@H]1C(=O)N2C(C(=O)O)=C(SCCNC=N)C[C@H]12` [IMIPENEM ANHYDROUS], the MIC in assay [6] was 2 µg/mL (≈ 6.68 µM); in [7], 1 µg/mL (≈ 3.34 µM); in assay [8] it was 2 µg/mL (≈ 6.68 µM); in assay [9], 1 µg/mL (≈ 3.34 µM); in assay [10], 1 µg/mL (≈ 3.34 µM); in [11], 1 µg/mL (≈ 3.34 µM). Moreover, the MIC in assay [12] was determined as 0.5 µg/mL (≈ 1.67 µM); in [13], 1 µg/mL (≈ 3.34 µM); in assay [14], 0.5 µg/mL (≈ 1.67 µM); in assay [15] it was 1 µg/mL (≈ 3.34 µM); in assay [16], 1 µg/mL (≈ 3.34 µM); in assay [17] it was 1 µg/mL (≈ 3.34 µM). For the same molecule, the MIC in [18] worked out at 2 µg/mL (≈ 6.68 µM); in assay [19], 0.5 µg/mL (≈ 1.67 µM); in assay [20], 0.5 µg/mL (≈ 1.67 µM); in [21], 2 µg/mL (≈ 6.68 µM); in assay [22] it was 1 µg/mL (≈ 3.34 µM); in assay [23] it was 1 µg/mL (≈ 3.34 µM). Besides, the MIC came out at 0.25 µg/mL (≈ 0.835 µM) in assay [24]; 2 µg/mL (≈ 6.68 µM) in assay [25]; 0.5 µg/mL (≈ 1.67 µM) in [26]; 0.5 µg/mL (≈ 1.67 µM) in assay [27]; 0.25 µg/mL (≈ 0.835 µM) in [28]; 0.5 µg/mL (≈ 1.67 µM) in [29]. The MIC stood at 0.125 µg/mL (≈ 0.418 µM) in [30]; 2 µg/mL (≈ 6.68 µM) in assay [31]; 1 µg/mL (≈ 3.34 µM) in [32]; 0.5 µg/mL (≈ 1.67 µM) in assay [33]; 1 µg/mL (≈ 3.34 µM) in [34]; 1 µg/mL (≈ 3.34 µM) in assay [35]. Further, the MIC was 1 µg/mL (≈ 3.34 µM) in assay [36]; 0.5 µg/mL (≈ 1.67 µM) in assay [37]; 0.5 µg/mL (≈ 1.67 µM) in assay [38]; 1 µg/mL (≈ 3.34 µM) in [39]; 0.5 µg/mL (≈ 1.67 µM) in assay [40]; 2 µg/mL (≈ 6.68 µM) in assay [41]. The MIC in assay [42] came to 0.5 µg/mL (≈ 1.67 µM); in [43], 1 µg/mL (≈ 3.34 µM); in assay [44] it was 1 µg/mL (≈ 3.34 µM); in [45], 1 µg/mL (≈ 3.34 µM); in assay [46], 2 µg/mL (≈ 6.68 µM); in [47], 0.25 µg/mL (≈ 0.835 µM). In addition, the MIC in assay [48] is 1 µg/mL (≈ 3.34 µM); in assay [49], 1 µg/mL (≈ 3.34 µM); in assay [50] it was 1 µg/mL (≈ 3.34 µM); in [51], 0.5 µg/mL (≈ 1.67 µM); in assay [52] it was 0.25 µg/mL (≈ 0.835 µM); in assay [53], 0.5 µg/mL (≈ 1.67 µM). The MIC in assay [54] was determined as 0.25 µg/mL (≈ 0.835 µM); in assay [55], 2 µg/mL (≈ 6.68 µM); in assay [56], 0.5 µg/mL (≈ 1.67 µM); in assay [57], 1 µg/mL (≈ 3.34 µM); in [58] it was 0.25 µg/mL (≈ 0.835 µM); in assay [59], 1 µg/mL (≈ 3.34 µM). The MIC in assay [60] came out at 1 µg/mL (≈ 3.34 µM).
Take `N=C(N)NCCC[C@H](NC(=O)[C@@H](N)Cc1ccccc1)C(=O)Nc1ccc2ccccc2c1` (H-Phe-Arg-βNA): the inhibition result in [1], in assay [2], in assay [3], in assay [4] and in assay [5] was “Active” throughout.
